# Test results taken from patent US20090004211A1, “METHOD FOR EFFECTING LOCALIZED, NON-SYSTEMIC AND SYSTEMIC, IMMUNOGENIC TREATMENT OF CANCER USING ERP57 TRANSLOCATION” (priority 2006, published 2009).
# Legend:
# CT26 tumor cells = experiment: Anti-tumor vaccination: treated dying CT26 cells injected s.c., challenge with live tumor cells in opposite flank; type: in vivo, BALB/c mice; details: CT26 cells treated in vitro with agent alone, immunocompetent BALB/c mice
# CRT [1] = experiment: Biotinylation of cell surface proteins, 2D gel electrophoresis and mass spectrometry: CRT; type: cell-based, mouse; details: 4 h treatment, vs untreated cells
# Description: Biotinylation and recovery of cell surface proteins were performed with a method adopted from Gottardi et al. (Gottardi, C. J. et al., “Biotinylation and assessment of membrane polarity: caveats and methodological concerns,” Am J Physiol 268, F285-295 (1995)) and Hanwell et al. (Hanwell, D. et al., “Trafficking and cell surface stability of the epithelial Na+ channel expressed in epithelial Madin-Darby canine kidney cells,” J Biol Chem 277, 9772-9779 (2002)). Briefly, 20×10^6 CT26 cells grown on 75 cm^2 flask were placed on ice and washed three times with ice-cold PBS-Ca^2+—Mg^2+ (PBS with 0.1 mM CaCl2 and 1 mM MgCl2). Membrane proteins were then biotinylated by a 30-minute incubation at 4° C. with NHS-SS-biotin 1.25 mg/ml freshly diluted into biotinylation buffer (10 mM triethanolamine, 2 mM CaCl2, 150 mM NaCl, pH 7.5) with gentle agitation. CT26 cells were rinsed with PBS-Ca^2+—Mg^2++glycine (100 mM) and washed in this buffer for 20 minutes at 4° C. to quench unreacted biotin. The cells were then rinsed twice with PBS-Ca^2+—Mg^2+, scraped in cold PBS, and pelleted at 2,000 rpm at 4° C. The pellets were solubilized for 45 min in […] of lysis buffer (1% Triton X-100, 150 mM NaCl, 5 mM EDTA, 50 mM Tris, pH 7.5) containing protease inhibitors. […]
# CRT [2] = experiment: Fluorescence detection of cell surface CRT (cytofluorometry); details: intact cells
# Description: CT26 cells (on a glass slide or in 12-well plates) were first washed with FACS buffer (1×PBS, 5% fetus bovine serum, and 0.1% sodium azide) and then incubated with rabbit anti-mouse CRT antibody (1:100, Stressgen), or rabbit anti-mouse ERP57 antibody (abcam) in FACS buffer at 4° C. for 30 min. […] After washing three times with FACS buffer, surface CRT and ERP57 was detected by cytofluorometric analysis on a FACS Vantage. In some experiments, cells were fixed with 4% paraformaldehyde, counterstained with Hoechst (2 μM; Sigma), followed by fluorescence microscopic assessment.
# Trypsinized CT26 cells were enucleated as described. Briefly, cells were treated in 2 ml of complete RPMI medium containing cytochalasin B (10 μg/ml; Sigma) and DNase I (80 U/ml; Sigma). […] Gradients containing cell suspensions were centrifugated in a prewarmed SW41 Beckman rotor at 25 000 rpm for 20 minutes at 30° C. […] Then the cell surface CRT was detected (see materials and methods) and the viability was determined by with propidium iodine staining (2 μg/ml, Sigma) for 5 min followed by cytofluorometric analysis.
# ERP57 = experiment: Biotinylation of cell surface proteins, 2D gel electrophoresis and mass spectrometry: ERP57; type: cell-based, mouse; details: 4 h treatment, vs untreated cells
# Description: Biotinylation and recovery of cell surface proteins were performed with a method adopted from Gottardi et al. (Gottardi, C. J. et al., “Biotinylation and assessment of membrane polarity: caveats and methodological concerns,” Am J Physiol 268, F285-295 (1995)) and Hanwell et al. (Hanwell, D. et al., “Trafficking and cell surface stability of the epithelial Na+ channel expressed in epithelial Madin-Darby canine kidney cells,” J Biol Chem 277, 9772-9779 (2002)). Briefly, 20×10^6 CT26 cells grown on 75 cm^2 flask were placed on ice and washed three times with ice-cold PBS-Ca^2+—Mg^2+ (PBS with 0.1 mM CaCl2 and 1 mM MgCl2). Membrane proteins were then biotinylated by a 30-minute incubation at 4° C. with NHS-SS-biotin 1.25 mg/ml freshly diluted into biotinylation buffer (10 mM triethanolamine, 2 mM CaCl2, 150 mM NaCl, pH 7.5) with gentle agitation. CT26 cells were rinsed with PBS-Ca^2+—Mg^2++glycine (100 mM) and washed in this buffer for 20 minutes at 4° C. to quench unreacted biotin. The cells were then rinsed twice with PBS-Ca^2+—Mg^2+, scraped in cold PBS, and pelleted at 2,000 rpm at 4° C. The pellets were solubilized for 45 min in […] of lysis buffer (1% Triton X-100, 150 mM NaCl, 5 mM EDTA, 50 mM Tris, pH 7.5) containing protease inhibitors. The lysates were clarified by centrifugation at 14,000×g for 10 min at 4° C., and the supernatants were incubated overnight with packed streptavidin-agarose beads to recover biotinylated proteins. The beads were then pelleted by centrifugation, and aliquots of supernatants were taken to represent the unbound, intracellular pool of proteins. Biotinylated proteins were eluted from the beads by heating to 100° C. for 5 minutes in SDS-PAGE sample buffer before loading onto a 10% SDS-PAGE gel as described above. To ensure the absence of leakage of biotin into the cells, the absence of the intracellular protein actin and GAPDH in biotinylated extracts was systematically verified.
# Purified proteins were precipitated using the Ettan 2-D clean up kit were subsequently resuspended in urea buffer (7M urea, 2M thiourea, 2% Chaps, 1% Sulfobetaine SB3-10, 1% Amidosulfobetaine ASB14, 50 mM DTT). For the first dimension of protein separation, isoelectric focusing (IEF) was performed using 18-cm immobilized nonlinear pH gradient strips (pH 3 to 10; GE Healthcare) on a electrophoresis unit. […]
# CT26 cells = experiment: Phagocytosis assay: uptake of treated tumor cells by dendritic cells; type: cell-based, mouse; details: before apoptotic changes
# Description: BM cells were flushed from the tibias and femurs of BALB/c mice with culture medium composed of RPMA 1640 medium supplemented with 10% heat-inactivated FBS, sodium pyruvate, […] 2-ME. 10 mM HEPES (pH 7.4), and penicillin/streptomycin. After one centrifugation, BM cells were resuspended in Tris-ammonium chloride for 2 min to lyse RBC. After one more centrifugation, BM cells (1×10^6 cells/ml) were cultured in medium supplemented with 100 ng/ml recombinant mouse FLT3 ligand in 6-well plates. […] In 12-well plates, […] adherent CT26 cells were labeled with Celltracker Orange and then incubated with drugs. […] Alternatively CT26 cells were coated with 3 μg/10^6 cells of rCRT on ice for 30 minutes and washed twice prior to addition to dendritic cells. Cells were then harvested, washed three times with medium supplemented with FBS and cocultured with immature DC for 2 hours at a ratio of 1:1 and 1:5. At the end of the incubation, cells were harvested with Versene, pooled with non-adherent cells present in the supernatant, washed and stained with CD11c-FITC antibody. Phagocytosis was assessed by FACS analysis of double positive cells. Phagocytic indexes refer to the ratio between values obtained at […] of co-incubation between DC and tumor cells. Trypsinized CT26 cells were enucleated as described. Briefly, cells were treated in 2 ml of complete RPMI medium containing cytochalasin B (10 μg/ml; Sigma) and DNase I (80 U/ml; Sigma). Cell suspension was adjusted to a final concentration of 5×10^6/ml and incubated at 37° C. for 45 minutes before being layered onto a previously prepared discontinuous Ficoll density gradient (3 ml of 100%, in 1 ml of 90% and 3 ml of 55% Ficoll Paque layer containing 5 μg/ml cytochalasin B and 40 U/ml DNase I; gradients were prepared in ultracentrifuge tubes and pre-equilibrated at 37° C. in a CO2 incubator overnight). Gradients containing cell suspensions were centrifugated in a prewarmed SW41 Beckman rotor at 25 000 rpm for 20 minutes at 30° C. The cytoplasts-enriched fraction was collected from the interface between 90 and 100% Ficoll layers, washed in complete RPMI 1640 medium, and incubated at 37° C. The cells were incubated with mitoxantrone (MTX), calyculin (CA), salubrinal (Sal) and toutomycin (TA) for the period of time indicated in the experiment. […] Alternatively cythoplasts were cocultured with immature DC for 2 hours at a ratio of 1:1 and 1:5. At the end of the incubation, cells were harvested with versene, pooled with non-adherent cells present in the supernatant, washed and stained with CD11c-FITC antibody. Phagocytosis was assessed by FACS analysis of double positive cells.
structure (smiles),measurement,setting,value
COc1cccc2c1C(=O)c1c(O)c3c(c(O)c1C2=O)C[C@@](O)(C(=O)CO)C[C@@H]3O[C@H]1C[C@H](N)[C@H](O)[C@H](C)O1 [doxorubicin],immunogenicity of cell death (protection against tumor growth on rechallenge),CT26 tumor cells,elicited immunogenic cell death
same,"induction of surface CRT, factor",CRT [1],6
same,time after treatment at which CRT exposure is detectable,CRT [2],1 h
same,"induction of surface ERP57 spot 1, factor",ERP57,4.1
same,"induction of surface ERP57 spot 2, factor",ERP57,3.4
same,"induction of surface ERP57 spot 3, factor",ERP57,8
same,"induction of surface ERP57 spot 4, factor",ERP57,8.1
same,time after treatment at which tumor cells are phagocytosed by DC,CT26 cells,within a few hours after treatment
